Test results from ChEMBL document CHEMBL5528071, “Discovery of Novel Steroid-Based Histamine H3 Receptor Antagonists/Inverse Agonists” (J Med Chem, 2024).

Key:
[1] = In vivo antagonist activity at Histamine H3 receptor in Wistar rat assessed as reduction in imetit-induced water intake pretreated with compound for 30 mins followed by imetit administration and measured after 30 mins by dipsogenia test; format: functional; settings: 1 h, time 60 min
[2] = molecular target: T1, Histamine H3 receptor (Homo sapiens, UniProt Q9Y5N1)
Description: Displacement of N-alpha-[methyl-3H]methylhistamine dihydrochloride from human Histamine H3 receptor expressed in CHO-K1 cell membrane assessed as inhibition constant incubated for 30 mins by liquid scintillation analyzer

[3] = molecular target: Voltage-gated inwardly rectifying potassium channel KCNH2 (Homo sapiens, UniProt Q12809); assay: Inhibition of human ERG expressed in CHO cells incubated for 7 to 10 mins by automated whole-cell patch clamp recordings; format: toxicity, cell-based
[4] = molecular target: Histamine H3 receptor (Rattus norvegicus, UniProt Q9QYN8)
Description: Displacement of N-alpha-[methyl-3H]-methylhistamine dihydrochloride from Sprague-Dawley rat cerebral cortex membrane Histamine H3 receptor assessed as inhibition constant incubated for 30 mins by scintillation counter

[5] = Displacement of [3H]quinuclidinyl benzilate from Wistar rat cerebral cortex membrane muscarinic AChR assessed as inhibition constant by liquid scintillation counter
[6] = species on record: Rattus norvegicus; assay: Displacement of [3H]quinuclidinyl benzilate from Wistar rat cerebral cortex membrane muscarinic AChR at 1 uM by liquid scintillation counter relative to control; format: cell membranes
[7] = Bioavailability in Wistar rat at 10 mg/kg, po or 3 mg/kg, iv measured after 24 hrs by HPLC-MS/MS analysis; format: ADME, organism-based; settings: in vivo
[8] = Ratio of drug concentration in Hannover Wistar rat brain to plasma administered orally for 2 days and measured 1 hrs post last dose by HPLC-MS/MS analysis; format: ADME; settings: route po, read-out: BPR
[9] = test system: Mus musculus; assay: Cognitive enhancing effect in scopolamine-induced NMRI mouse model assessed as reversal of exploration time by measuring minimum effective dose preadministered orally for 30 mins followed by scopolamine administration by place recognition test; format: functional; settings: 0.5 h, route po, read-out: MED
[10] = test system: Rattus norvegicus; assay: Cognitive enhancing effect in Hannover Wistar rat model of delay-induced natural forgetting assessed as reversal of exploration time by measuring minimal effective dose orally administered for 30 mins by novel object recognition test; format: functional; settings: 0.5 h, route po, read-out: MED
[11] = molecular target: T1, Histamine H3 receptor; assay: Antagonist activity at human Histamine H3 receptor
[12] = molecular target: T2, hERG (KCNH2) (Homo sapiens, UniProt Q12809); assay: Inhibition of human ERG expressed in CHO cells at 3 uM incubated for 7 to 10 mins by automated whole-cell patch clamp recordings relative to control; settings: CHO cells expressing human ERG
[13] = molecular target: T2, hERG (KCNH2); assay: Inhibition of human ERG expressed in CHO cells at 1 uM incubated for 7 to 10 mins by automated whole-cell patch clamp recordings relative to control; settings: CHO cells expressing human ERG

T1 sequence (Q9Y5N1 whole entry): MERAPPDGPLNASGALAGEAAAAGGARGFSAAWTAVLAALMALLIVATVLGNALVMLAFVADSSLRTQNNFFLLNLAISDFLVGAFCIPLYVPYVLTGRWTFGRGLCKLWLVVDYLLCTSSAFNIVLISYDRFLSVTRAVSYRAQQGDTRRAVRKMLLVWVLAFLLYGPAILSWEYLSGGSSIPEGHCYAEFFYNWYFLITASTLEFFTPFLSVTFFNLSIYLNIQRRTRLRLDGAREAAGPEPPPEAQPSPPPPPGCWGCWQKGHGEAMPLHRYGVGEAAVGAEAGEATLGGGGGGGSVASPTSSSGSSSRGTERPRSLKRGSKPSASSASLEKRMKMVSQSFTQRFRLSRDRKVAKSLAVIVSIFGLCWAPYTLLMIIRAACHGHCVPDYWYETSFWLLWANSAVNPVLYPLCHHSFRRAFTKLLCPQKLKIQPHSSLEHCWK
Histamine H3 receptor (Rattus norvegicus, UniProt Q9QYN8), sequence (Q9QYN8 whole entry): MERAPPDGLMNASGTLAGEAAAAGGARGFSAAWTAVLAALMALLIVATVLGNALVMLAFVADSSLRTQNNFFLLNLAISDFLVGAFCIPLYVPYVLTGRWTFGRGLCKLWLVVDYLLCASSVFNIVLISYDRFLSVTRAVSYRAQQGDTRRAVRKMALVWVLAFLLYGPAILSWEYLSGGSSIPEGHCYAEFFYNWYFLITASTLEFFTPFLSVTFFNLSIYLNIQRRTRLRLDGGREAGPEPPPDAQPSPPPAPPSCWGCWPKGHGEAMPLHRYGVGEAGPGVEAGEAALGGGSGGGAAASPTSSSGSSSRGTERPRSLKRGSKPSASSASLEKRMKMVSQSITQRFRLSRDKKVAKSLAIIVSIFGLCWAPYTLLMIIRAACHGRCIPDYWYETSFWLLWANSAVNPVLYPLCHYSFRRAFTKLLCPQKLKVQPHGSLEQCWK
Voltage-gated inwardly rectifying potassium channel KCNH2, sequence (Q12809 whole entry): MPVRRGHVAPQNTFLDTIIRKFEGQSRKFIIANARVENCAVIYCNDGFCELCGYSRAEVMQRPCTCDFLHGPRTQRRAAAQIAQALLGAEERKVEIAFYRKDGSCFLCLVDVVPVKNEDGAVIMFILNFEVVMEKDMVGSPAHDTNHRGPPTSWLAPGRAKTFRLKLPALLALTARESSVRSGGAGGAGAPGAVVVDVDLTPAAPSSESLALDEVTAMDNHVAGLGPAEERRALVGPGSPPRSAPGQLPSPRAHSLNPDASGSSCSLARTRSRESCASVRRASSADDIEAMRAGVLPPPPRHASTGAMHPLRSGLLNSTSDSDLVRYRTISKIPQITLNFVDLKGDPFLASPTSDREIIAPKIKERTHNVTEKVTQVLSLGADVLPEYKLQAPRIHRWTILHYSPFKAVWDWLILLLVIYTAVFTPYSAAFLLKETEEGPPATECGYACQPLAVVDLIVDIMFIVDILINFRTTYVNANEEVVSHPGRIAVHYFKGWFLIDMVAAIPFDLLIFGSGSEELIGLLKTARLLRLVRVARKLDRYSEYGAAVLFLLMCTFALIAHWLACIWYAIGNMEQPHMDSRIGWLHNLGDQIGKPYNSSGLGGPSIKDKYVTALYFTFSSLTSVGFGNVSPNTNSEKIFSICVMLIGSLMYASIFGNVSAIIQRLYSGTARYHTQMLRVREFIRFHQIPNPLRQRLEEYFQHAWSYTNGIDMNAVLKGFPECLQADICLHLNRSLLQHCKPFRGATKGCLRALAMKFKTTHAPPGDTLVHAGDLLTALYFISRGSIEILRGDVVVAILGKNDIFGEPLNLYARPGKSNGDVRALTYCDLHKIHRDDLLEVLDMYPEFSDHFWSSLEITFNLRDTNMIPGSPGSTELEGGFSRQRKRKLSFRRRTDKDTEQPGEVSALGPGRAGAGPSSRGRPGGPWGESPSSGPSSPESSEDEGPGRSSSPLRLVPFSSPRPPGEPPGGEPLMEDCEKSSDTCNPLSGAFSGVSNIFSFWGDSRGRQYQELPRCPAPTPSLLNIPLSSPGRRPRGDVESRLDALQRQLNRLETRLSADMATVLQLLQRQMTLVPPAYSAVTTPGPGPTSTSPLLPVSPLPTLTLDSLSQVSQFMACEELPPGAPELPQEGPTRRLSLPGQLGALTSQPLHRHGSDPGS
T2 sequence (Q12809 whole entry): as above

| SMILES | Ki [2] [nM] | Ki [4] [nM] | ED50 [1] [mg/kg] | IC50 [3] [µM] | further results |
| --- | --- | --- | --- | --- | --- |
| C[C@@H]1CCCN1CCCOc1ccc2c(c1)CC[C@H]1[C@@H]3[C@H](C#N)CC(=O)N[C@@]3(C)CC[C@H]21 | 8.6 | 20.5 | 3.6 | 24 | Ki [5]: 2400 nM |
| C[C@@H]1CCCN1CCCOc1ccc2c(c1)CC[C@@H]1[C@@H]2CC[C@]2(C)NC(=O)CC[C@H]12 |  |  |  | 22 |  |
| C[C@@H]1CCCN1CCCOc1ccc2c(c1)CC[C@@H]1[C@@H]2CC[C@@]2(C)NC(=O)CC[C@@H]12 |  |  |  | > 30 |  |
| CCC(=O)N1CCC[C@H]2[C@@H]3CCc4cc(OCCCN5CCC[C@H]5C)ccc4[C@H]3CC[C@@]21C | 8 | 37.3 |  | > 10 | Ki [5]: 1700 nM |
| C[C@@H]1CCCN1CCCOc1ccc2c(c1)CC[C@@H]1[C@@H]2CC[C@]2(C)NC(=O)CC[C@@H]12 |  |  |  | 3.7 |  |
| C[C@@H]1CCCN1CCCOc1ccc2c(c1)CC[C@@H]1[C@@H]2CC[C@@]2(C)[C@H]1CCC(=O)N2C |  |  | 0.4 | 9.9 | bioavailability [7]: 63.7%; Kp at 49 h [8]: 1.4; minimal effective dose [9]: 0.1 mg/kg; minimal effective dose [10]: 0.3 mg/kg |
| NC(=O)c1ccc([C@@H]2C[C@H]2C(=O)N2CCN(C3CCC3)CC2)cc1 |  |  |  |  | Ki [11]: 0.501 nM |
| C[C@]12CC[C@@H]3c4ccc(OCCCN5CCCC5)cc4CC[C@H]3[C@@H]1CCCN2CCO | 3.4 | 10.5 |  |  |  |
| C[C@@H]1C[C@@H]2[C@@H]3CCc4cc(OCCCN5CCC[C@H]5C)ccc4[C@H]3CC[C@]2(C)N(C)C1=O | 1.5 | 3.8 |  | 2.7 |  |
| CC(=O)N[C@]12CCC(=O)N[C@@]1(C)CC[C@@H]1c3ccc(OCCCN4CCC[C@H]4C)cc3CC[C@H]12 | 15.1 | 14.5 |  |  | inhibition at 3 µM [12]: 8%; inhibition at 1 µM [13]: 3% |
| C[C@@H]1CCCN1CCCOc1ccc2c(c1)CC[C@H]1C3=CCC(=O)N(C)[C@@]3(C)CC[C@H]21 | 1.1 | 5.7 | 0.22 | 8.6 | Ki [5]: 1500 nM |
| C[C@@H]1C[C@H]2[C@@H]3CCc4cc(OCCCN5CCC[C@H]5C)ccc4[C@H]3CC[C@]2(C)NC1=O | 4.1 | 9 | 0.86 | 14.5 | Ki [5]: 2700 nM |
| C[C@@H]1CCCN1CCCOc1ccc2c(c1)CC[C@@H]1[C@@H]2CC[C@@]2(C)[C@@H]1CCC(=O)N2C |  |  | 0.23 | 9.6 |  |

The next lines start with results.

| Ki [2] [nM] | Ki [4] [nM] | SMILES | ED50 [1] [mg/kg] | IC50 [3] [µM] | further results |
| --- | --- | --- | --- | --- | --- |
| 2 | 7.2 | C[C@@H]1CCCN1CCCOc1ccc2c(c1)CC[C@H]1[C@@H]3[C@H](C#N)CC(=O)N(C)[C@@]3(C)CC[C@H]21 | 0.78 | 10.4 |  |
| 1 | 3.3 | C[C@@H]1CCCN1CCCOc1ccc2c(c1)CC[C@H]1[C@@H]3[C@@H]4C[C@@H]4C(=O)N(C)[C@@]3(C)CC[C@H]21 | 1.4 | 7.7 |  |
| 7.8 | 55.2 | C[C@@H]1CCCN1CCCOc1ccc2c(c1)CC[C@@H]1[C@@H]2CC[C@@]2(C)[C@H]1CCCN2C(=O)C(C)(C)C |  |  | Ki [5]: 816 nM |
| 1.8 | 21.8 | C[C@]12CC[C@@H]3c4ccc(OCCCN5CCCC5)cc4CC[C@H]3[C@@H]1CCCN2C=O |  | 6 | Activity [6]: 13% |
| 0.9 | 5.1 | CN1CCC[C@H]2[C@@H]3CCc4cc(OCCCN5CCCC5)ccc4[C@H]3CC[C@@]21C |  |  | Activity [6]: 69% |
| 1.5 | 30.2 | C[C@]12CC[C@@H]3c4ccc(OCCCN5CCCC5)cc4CC[C@H]3[C@@H]1CCCN2 |  |  | Activity [6]: 36% |
| 2.2 | 24.8 | C[C@@H]1CC(=O)N[C@@]2(C)CC[C@@H]3c4ccc(OCCCN5CCC[C@H]5C)cc4CC[C@H]3[C@H]12 | 1.3 | 11 | Ki [5]: 2500 nM |
|  | 96 | C[C@@H]1CCCN1CCCOc1ccc2c(c1)CC[C@@H]1[C@@H]2CC[C@@]2(C)[C@H]1CCCN2C(=O)C1CCOC1 (some centres not stated) |  |  |  |
| 6.9 | 15.9 | CC(=O)N1CCC[C@H]2[C@@H]3CCc4cc(OCCCN5CCC[C@H]5C)ccc4[C@H]3CC[C@@]21C |  | 10 |  |
| 10.6 |  | CN1CCC[C@H]2[C@@H]3CC[C@H]4C[C@@H](OC(=O)CCN5CCCC5)CC[C@]4(C)[C@H]3CC[C@@]21C |  |  | Activity [6]: 44% |
| 11.6 |  | C[C@@H]1CCCN1CCCOc1ccc2c(c1)CC[C@@H]1[C@@H]2CC[C@@]2(C)[C@H]1CCCN2C(=O)c1ccccc1 |  |  |  |
| 2.4 | 9.9 | C[C@@H]1CCCN1CCCOc1ccc2c(c1)CC[C@H]1[C@H]3[C@@H]4C[C@@H]4C(=O)N[C@@]3(C)CC[C@H]21 | 0.33 | 5 | Ki [5]: 3600 nM |
|  | 6.8 | C[C@@H]1CCCN1CCCOc1ccc2c(c1)CC[C@H]1C3=CCC(=O)N[C@@]3(C)CC[C@H]21 | 0.12 | 18.7 | bioavailability [7]: 63.8%; Kp at 49 h [8]: 0.6; minimal effective dose [9]: 0.3 mg/kg |
| 4.9 | 9.4 | C[C@@H]1CCCN1CCCOc1ccc2c(c1)CC[C@H]1[C@@H]3[C@@H]4C[C@@H]4C(=O)N[C@@]3(C)CC[C@H]21 | 1.5 | 11.7 |  |
| 2.4 | 2.2 | C[C@@H]1CC(=O)N(C)[C@@]2(C)CC[C@@H]3c4ccc(OCCCN5CCC[C@H]5C)cc4CC[C@H]3[C@H]12 | 0.48 | 8.8 |  |
